Results: PubChem BioAssay (NCI)
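Method: 48-hour compound exposure of cells in 96-well plates, five concentrations, linear interpolation of endpoints. TGI denotes the concentration required for complete inhibition of growth.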

Tests used:
Assay in all cases: NCI tumour cell line growth inhibition, 48 h
[1] = test system: 786-0 renal
[2] = test system: A498 renal
[3] = test system: A549 NSCLC
[4] = test system: ACHN renal
[5] = test system: CAKI-1 renal
[6] = test system: CCRF-CEM leukemia
[7] = test system: COLO 205 colon
[8] = test system: DLD-1 colon
[9] = test system: DMS 114 small cell lung
[10] = test system: DMS 273 small cell lung
[11] = test system: EKVX NSCLC
[12] = test system: HCC-2998 colon
[13] = test system: HCT-116 colon
[14] = test system: HCT-15 colon
[15] = test system: HL-60(TB) leukemia
[16] = test system: HOP-18 NSCLC
[17] = test system: HOP-62 NSCLC
[18] = test system: HOP-92 NSCLC
[19] = test system: HT29 colon
[20] = test system: IGROV1 ovarian
[21] = test system: K-562 leukemia
[22] = test system: KM12 colon
[23] = test system: KM20L2 colon
[24] = test system: LOX IMVI melanoma
[25] = test system: LXFL 529 NSCLC
[26] = test system: M14 melanoma
[27] = test system: M19-MEL melanoma
[28] = test system: MALME-3M melanoma
[29] = test system: MOLT-4 leukemia
[30] = test system: NCI-H226 lung
[31] = test system: NCI-H23 lung
[32] = test system: NCI-H460 lung
[33] = test system: NCI-H522 lung
[34] = test system: OVCAR-3 ovarian
[35] = test system: OVCAR-4 ovarian
[36] = test system: OVCAR-5 ovarian
[37] = test system: OVCAR-8 ovarian
[38] = test system: RPMI-8226 leukemia
[39] = test system: RXF 393 renal
[40] = test system: RXF-631 renal
[41] = test system: SF-268 CNS
[42] = test system: SF-295 CNS
[43] = test system: SF-539 CNS
[44] = test system: SK-MEL-2 melanoma
[45] = test system: SK-MEL-28 melanoma
[46] = test system: SK-MEL-5 melanoma
[47] = test system: SK-OV-3 ovarian
[48] = test system: SN12C renal
[49] = test system: SNB-19 CNS
[50] = test system: SNB-75 CNS
[51] = test system: SNB-78 CNS
[52] = test system: SR leukemia
[53] = test system: SW-620 colon
[54] = test system: TK-10 renal
[55] = test system: U251 CNS
[56] = test system: UACC-257 melanoma
[57] = test system: UACC-62 melanoma
[58] = test system: UO-31 renal

Measured: TGI

CC12CCC([C@H](N3CCOCC3)/C1=N\OCCN1CCCC1)C2(C)C (stereo partly drawn)
> 100 µM: [1] | [2] | [3] | [4] | [5] | [6] | [7] | [8] | [9] | [10] | [11] | [12] | [13] | [14] | [15] | [16] | [17] | [18] | [19] | [20] | [21] | [22] | [23] | [24] | [25] | [26] | [27] | [28] | [29] | [30] | [31] | [32] | [33] | [34] | [35] | [36] | [37] | [38] | [39] | [40] | [41] | [42] | [43] | [44] | [45] | [46] | [47] | [48] | [49] | [50] | [51] | [52] | [53] | [54] | [55] | [56] | [57] | [58]
